From patent US20080009418A1, “Selective Inhibitors” (Alchemia LTD., priority 2004, published 2008)

Assays:
Human Melanocortin (MC4) = target: T1, Human Melanocortin (MC4) (Homo sapiens, UniProt P32245); assay: Radioligand binding, human melanocortin MC4 membranes, FlashPlate, [125I]-NDP-αMSH; conditions: compound at 10 μM, [125I]-NDP-αMSH
T1 construct: purchased Perkin Elmer Biosignal
Summary of the method: (§1)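 Cloned human receptor membranes were coated onto FlashPlate wells and incubated with radioligand and compound (added from a 0.5 mM DMSO daughter plate) for 1 hour at room temperature in the dark. Scintillation counting gave percent inhibition, with DMSO defining total and reference ligand defining non-specific binding.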

[1] = target: T2, Human melanin-concentrating hormone (MCH1) (Homo sapiens, UniProt Q99705); assay: Radioligand binding, human melanin-concentrating hormone MCH1 membranes, FlashPlate, [125I]-S36057; conditions: compound at 10 μM; for A6: inhibition of radioligand binding, human melanin-concentrating hormone (MCH1): [125I]-S36057
T2 construct: purchased Perkin Elmer Biosignal
T2 sequence (Q99705 whole entry): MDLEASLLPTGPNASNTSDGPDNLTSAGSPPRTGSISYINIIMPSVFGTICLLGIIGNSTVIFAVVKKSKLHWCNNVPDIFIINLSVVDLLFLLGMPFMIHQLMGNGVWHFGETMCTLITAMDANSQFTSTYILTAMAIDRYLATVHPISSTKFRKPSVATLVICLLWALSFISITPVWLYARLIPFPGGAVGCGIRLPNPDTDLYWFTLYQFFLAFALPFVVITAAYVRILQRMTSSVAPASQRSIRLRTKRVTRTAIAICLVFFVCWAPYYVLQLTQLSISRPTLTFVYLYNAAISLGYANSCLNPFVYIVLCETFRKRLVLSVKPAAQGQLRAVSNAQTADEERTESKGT
Summary of the method: as §1

Human Melanocortin (MC3) = target: T3, Human Melanocortin (MC3) (Homo sapiens, UniProt P41968); assay: Radioligand binding, human melanocortin MC3 membranes, FlashPlate, [125I]-NDP-αMSH; conditions: compound at 10 μM, [125I]-NDP-αMSH
T3 construct: purchased Perkin Elmer Biosignal
T3 sequence (P41968 whole entry): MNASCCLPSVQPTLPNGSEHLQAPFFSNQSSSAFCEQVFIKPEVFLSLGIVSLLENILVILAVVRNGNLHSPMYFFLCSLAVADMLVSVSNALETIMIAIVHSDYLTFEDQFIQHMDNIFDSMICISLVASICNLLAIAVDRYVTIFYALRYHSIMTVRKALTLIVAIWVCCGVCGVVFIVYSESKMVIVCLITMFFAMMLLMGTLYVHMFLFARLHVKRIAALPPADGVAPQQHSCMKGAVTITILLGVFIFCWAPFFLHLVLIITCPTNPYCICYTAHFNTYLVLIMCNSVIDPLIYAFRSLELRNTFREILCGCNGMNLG
Summary of the method: as §1

[2] = target: T4, Human neuropeptide Y (NPY-Y1) (Homo sapiens, UniProt P25929); assay: Radioligand binding, human neuropeptide Y NPY-Y1 membranes, FlashPlate, [125I]-PYY; conditions: compound at 10 μM, [125I]-PYY
T4 construct: purchased Perkin Elmer Biosignal
T4 sequence (P25929 1-384): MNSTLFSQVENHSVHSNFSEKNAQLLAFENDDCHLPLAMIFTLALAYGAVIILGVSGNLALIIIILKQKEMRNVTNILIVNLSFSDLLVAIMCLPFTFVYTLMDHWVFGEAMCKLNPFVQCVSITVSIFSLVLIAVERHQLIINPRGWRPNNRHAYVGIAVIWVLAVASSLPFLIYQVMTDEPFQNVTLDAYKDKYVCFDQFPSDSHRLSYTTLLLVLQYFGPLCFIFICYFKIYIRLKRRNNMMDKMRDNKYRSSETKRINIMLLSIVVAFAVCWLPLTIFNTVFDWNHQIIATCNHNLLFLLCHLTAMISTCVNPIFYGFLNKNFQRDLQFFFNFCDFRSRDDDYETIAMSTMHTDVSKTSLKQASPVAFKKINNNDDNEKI
Summary of the method: as §1

Human opioid (ORL1) = target: T5, Human opioid (ORL1) (Homo sapiens, UniProt P41146); assay: Radioligand binding, human opioid ORL1 membranes, FlashPlate, [125I]-Nociceptin; conditions: compound at 10 μM, [125I]-Nociceptin
T5 construct: purchased Perkin Elmer Biosignal
T5 sequence (P41146 whole entry): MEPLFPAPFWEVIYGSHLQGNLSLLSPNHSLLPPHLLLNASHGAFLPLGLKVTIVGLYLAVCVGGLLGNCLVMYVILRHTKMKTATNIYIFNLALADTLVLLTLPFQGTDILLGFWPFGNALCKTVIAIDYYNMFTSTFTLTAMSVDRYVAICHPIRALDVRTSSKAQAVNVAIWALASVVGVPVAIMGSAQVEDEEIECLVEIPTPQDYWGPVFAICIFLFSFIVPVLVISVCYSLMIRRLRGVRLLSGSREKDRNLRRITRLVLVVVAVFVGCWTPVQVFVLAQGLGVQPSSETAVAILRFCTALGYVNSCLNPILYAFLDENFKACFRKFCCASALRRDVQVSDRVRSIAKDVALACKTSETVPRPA
Summary of the method: as §1

Mouse urotensin (mUR2) = target: T6, Mouse urotensin (mUR2) (Mus musculus, UniProt Q8VIH9); assay: Radioligand binding, mouse urotensin mUR2 membranes, FlashPlate, [125I]-Urotensin II; conditions: compound at 10 μM, [125I]-Urotensin II
T6 construct: purchased Perkin Elmer Biosignal
T6 sequence (Q8VIH9 1-385): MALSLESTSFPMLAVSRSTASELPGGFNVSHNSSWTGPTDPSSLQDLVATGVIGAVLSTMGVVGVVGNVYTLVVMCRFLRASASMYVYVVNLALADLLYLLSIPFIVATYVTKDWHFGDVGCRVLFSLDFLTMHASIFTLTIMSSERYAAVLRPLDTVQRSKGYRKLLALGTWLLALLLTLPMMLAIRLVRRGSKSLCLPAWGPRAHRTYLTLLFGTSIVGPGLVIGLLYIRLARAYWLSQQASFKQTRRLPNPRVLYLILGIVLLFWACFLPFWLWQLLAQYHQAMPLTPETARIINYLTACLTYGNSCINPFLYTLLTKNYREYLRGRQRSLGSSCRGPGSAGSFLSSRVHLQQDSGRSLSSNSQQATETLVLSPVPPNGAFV
Summary of the method: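 Cloned mouse urotensin (mUR2) receptor membranes from Perkin Elmer Biosignal were immobilized in FlashPlate microplates using a proprietary coating. Each well got 19.5 μl buffer, then 0.5 μl of DMSO, reference ligand, or compound. Adding 5 μl of [125I]-Urotensin II, diluted to 5× final concentration in binding buffer, started binding. Plates were sealed with TopSeal-A and incubated 1 hour at room temperature in the dark. Wells were counted for 30 seconds each on a TopCount after a 60-second delay, and percentage inhibition was calculated.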

Human neurokinin (NK1) = target: T7, Human neurokinin (NK1) (Homo sapiens, UniProt P25103); assay: Radioligand binding, human neurokinin NK1 membranes, filtration, [125I]-Substance P; conditions: compound at 10 μM, [125I]-Substance P
T7 construct: purchased Perkin Elmer Biosignal
T7 sequence (P25103 whole entry): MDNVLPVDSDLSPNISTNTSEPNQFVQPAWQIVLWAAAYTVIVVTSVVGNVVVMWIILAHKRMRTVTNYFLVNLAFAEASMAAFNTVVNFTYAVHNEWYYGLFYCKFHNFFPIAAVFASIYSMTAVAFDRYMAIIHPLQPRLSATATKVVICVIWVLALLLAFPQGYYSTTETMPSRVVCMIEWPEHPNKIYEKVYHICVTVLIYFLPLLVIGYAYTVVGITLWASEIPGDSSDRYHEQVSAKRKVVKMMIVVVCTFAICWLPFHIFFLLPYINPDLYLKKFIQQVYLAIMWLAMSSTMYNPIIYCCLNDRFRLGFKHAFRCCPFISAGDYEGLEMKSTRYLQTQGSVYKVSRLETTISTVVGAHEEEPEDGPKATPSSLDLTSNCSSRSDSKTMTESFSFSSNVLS
Summary of the method: (§2)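 Membranes from cloned human receptors were incubated with compound and radioligand for 1 hour at room temperature. Bound ligand was collected on 0.3% PEI-soaked filters, washed with cold 50 mM Tris-HCl pH 7.4, and counted by scintillation. Percent inhibition was computed against DMSO totals and reference-ligand nonspecific wells.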

Human κ-Opioid (KOP) = target: T8, Human κ-Opioid (KOP) (Homo sapiens, UniProt P41145); assay: Radioligand binding, human κ-opioid (KOP) membranes, filtration, [3H]-Diprenorphine; conditions: compound at 10 μM, [3H]-Diprenorphine
T8 construct: purchased Perkin Elmer Biosignal
T8 sequence (P41145 whole entry): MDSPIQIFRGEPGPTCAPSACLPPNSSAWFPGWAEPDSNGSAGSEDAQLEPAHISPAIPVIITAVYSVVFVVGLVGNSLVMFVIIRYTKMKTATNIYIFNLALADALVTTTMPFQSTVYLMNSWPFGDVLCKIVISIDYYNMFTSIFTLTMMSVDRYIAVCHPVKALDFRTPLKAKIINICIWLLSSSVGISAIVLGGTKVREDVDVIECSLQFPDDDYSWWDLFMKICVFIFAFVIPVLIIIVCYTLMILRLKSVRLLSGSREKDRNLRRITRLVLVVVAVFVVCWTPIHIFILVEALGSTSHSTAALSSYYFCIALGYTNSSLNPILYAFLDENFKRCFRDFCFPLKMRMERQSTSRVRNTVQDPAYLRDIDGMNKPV
Summary of the method: as §2

Human δ-opioid (DOP) = target: T9, Human δ-opioid (DOP) (Homo sapiens, UniProt P41143); assay: Radioligand binding, human δ-opioid (DOP) membranes, FlashPlate, [3H]-Bremazocine; conditions: compound at 10 μM, [3H]-Bremazocine
T9 construct: purchased Perkin Elmer Biosignal
T9 sequence (P41143 whole entry): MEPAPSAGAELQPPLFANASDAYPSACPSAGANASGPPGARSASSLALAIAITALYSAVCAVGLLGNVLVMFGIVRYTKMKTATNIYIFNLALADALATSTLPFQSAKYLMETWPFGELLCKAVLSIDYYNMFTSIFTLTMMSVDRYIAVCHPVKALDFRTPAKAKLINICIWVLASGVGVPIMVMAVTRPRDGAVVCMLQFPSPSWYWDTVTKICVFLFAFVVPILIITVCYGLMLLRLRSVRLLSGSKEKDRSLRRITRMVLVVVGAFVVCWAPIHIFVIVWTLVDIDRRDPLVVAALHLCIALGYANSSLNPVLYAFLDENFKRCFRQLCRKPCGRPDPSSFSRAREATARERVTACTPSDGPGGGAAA
Summary of the method: as §1

Human μ-opioid (MOP) = target: T10, Human μ-opioid (MOP) (Homo sapiens, UniProt P35372); assay: Radioligand binding, human μ-opioid (MOP) membranes, FlashPlate, [3H]-Naloxone; conditions: compound at 10 μM, [3H]-Naloxone
T10 construct: purchased Perkin Elmer Biosignal
T10 sequence (P35372 whole entry): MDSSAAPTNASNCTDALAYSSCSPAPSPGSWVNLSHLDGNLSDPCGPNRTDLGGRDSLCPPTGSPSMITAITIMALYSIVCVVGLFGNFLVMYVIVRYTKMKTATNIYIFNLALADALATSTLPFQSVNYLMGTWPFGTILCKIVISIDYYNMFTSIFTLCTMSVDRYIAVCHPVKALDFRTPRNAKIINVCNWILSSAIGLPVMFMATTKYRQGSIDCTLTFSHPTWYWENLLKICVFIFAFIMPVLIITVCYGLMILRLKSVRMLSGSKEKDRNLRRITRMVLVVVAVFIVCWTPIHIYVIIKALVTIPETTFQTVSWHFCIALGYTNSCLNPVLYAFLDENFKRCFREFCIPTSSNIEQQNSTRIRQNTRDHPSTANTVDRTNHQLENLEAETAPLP
Summary of the method: as §1

Human melanocortin (MC5) = target: T11, Human melanocortin (MC5) (Homo sapiens, UniProt P33032); assay: Radioligand binding, human melanocortin MC5 membranes, FlashPlate, [125I]-NDP-αMSH; conditions: compound at 10 μM, [125I]-NDP-αMSH
T11 construct: purchased Perkin Elmer Biosignal
T11 sequence (P33032 whole entry): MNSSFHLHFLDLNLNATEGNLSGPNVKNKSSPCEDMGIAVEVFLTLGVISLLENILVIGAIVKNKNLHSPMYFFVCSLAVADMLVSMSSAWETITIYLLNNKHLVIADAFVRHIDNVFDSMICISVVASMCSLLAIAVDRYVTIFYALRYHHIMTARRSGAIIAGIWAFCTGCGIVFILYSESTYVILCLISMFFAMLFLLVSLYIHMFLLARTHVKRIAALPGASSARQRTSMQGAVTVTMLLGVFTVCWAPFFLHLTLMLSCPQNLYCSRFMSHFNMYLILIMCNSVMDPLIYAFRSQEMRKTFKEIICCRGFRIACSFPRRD
Summary of the method: as §1

T1 sequence (P32245 whole entry): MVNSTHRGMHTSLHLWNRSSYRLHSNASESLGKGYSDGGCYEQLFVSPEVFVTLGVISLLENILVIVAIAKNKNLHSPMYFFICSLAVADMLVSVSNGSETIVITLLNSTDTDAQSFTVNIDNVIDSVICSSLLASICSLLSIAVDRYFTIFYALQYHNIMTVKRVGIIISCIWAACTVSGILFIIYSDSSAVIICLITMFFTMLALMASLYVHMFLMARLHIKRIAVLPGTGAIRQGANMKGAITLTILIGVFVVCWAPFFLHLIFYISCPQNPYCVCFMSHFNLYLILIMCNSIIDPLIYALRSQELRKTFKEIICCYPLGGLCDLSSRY

Structure (SMILES): CO[C@H]1[C@H](O)[C@@H](COCc2ccc3ccccc3c2)OC(OCc2ccc(Cl)cc2)[C@@H]1NC(=O)C1CCCN(C(=N)N)C1 (stereo partly drawn) [compound 353]
- A4: inhibition of radioligand binding, human melanocortin (MC4) (Human Melanocortin (MC4)): − (“−” indicates less than 50% inhibition at 10 μM)
- A6: inhibition of radioligand binding, human melanin-concentrating hormone (MCH1) [1]: − (“−” indicates less than 50% inhibition at 10 μM)
- A3: inhibition of radioligand binding, human melanocortin (MC3) (Human Melanocortin (MC3)): − (“−” indicates less than 50% inhibition at 10 μM)
- A9: inhibition of radioligand binding, human neuropeptide Y (NPY-Y1) [2]: − (“−” indicates less than 50% inhibition at 10 μM)
- A10: inhibition of radioligand binding, human opioid (ORL1) (Human opioid (ORL1)): − (“−” indicates less than 50% inhibition at 10 μM)
- A11: inhibition of radioligand binding, mouse urotensin (mUR2) (Mouse urotensin (mUR2)): − (“−” indicates less than 50% inhibition at 10 μM)
- A8: inhibition of radioligand binding, human neurokinin (NK1) (Human neurokinin (NK1)): + (“+” indicates greater than 50% inhibition at 10 μM)
- A2: inhibition of radioligand binding, human κ-opioid (KOP) (Human κ-Opioid (KOP)): − (“−” indicates less than 50% inhibition at 10 μM)
- A1: inhibition of radioligand binding, human δ-opioid (DOP) (Human δ-opioid (DOP)): − (“−” indicates less than 50% inhibition at 10 μM)
- A7: inhibition of radioligand binding, human μ-opioid (MOP) (Human μ-opioid (MOP)): − (“−” indicates less than 50% inhibition at 10 μM)
- A5: inhibition of radioligand binding, human melanocortin (MC5) (Human melanocortin (MC5)): − (“−” indicates less than 50% inhibition at 10 μM)

Structure (SMILES): NCCCC(=O)NC1C(OCc2ccc(Cl)cc2)OC(COCc2ccc(Cl)cc2)C(O)C1OCc1ccc(Cl)cc1 (single isomer, unassigned) [compound 493]
- A4: inhibition of radioligand binding, human melanocortin (MC4) (Human Melanocortin (MC4)): + (“+” indicates greater than 50% inhibition at 10 μM)
- A6: inhibition of radioligand binding, human melanin-concentrating hormone (MCH1) [1]: + (“+” indicates greater than 50% inhibition at 10 μM)
- A3: inhibition of radioligand binding, human melanocortin (MC3) (Human Melanocortin (MC3); 10 µM): − (“−” indicates less than 50% inhibition at 10 μM)
- A9: inhibition of radioligand binding, human neuropeptide Y (NPY-Y1) [2]: − (“−” indicates less than 50% inhibition at 10 μM)
- A10: inhibition of radioligand binding, human opioid (ORL1) (Human opioid (ORL1)): + (“+” indicates greater than 50% inhibition at 10 μM)
- A11: inhibition of radioligand binding, mouse urotensin (mUR2) (Mouse urotensin (mUR2)): − (“−” indicates less than 50% inhibition at 10 μM)
- A8: inhibition of radioligand binding, human neurokinin (NK1) (Human neurokinin (NK1)): + (“+” indicates greater than 50% inhibition at 10 μM)
- A2: inhibition of radioligand binding, human κ-opioid (KOP) (Human κ-Opioid (KOP)): − (“−” indicates less than 50% inhibition at 10 μM)
- A1: inhibition of radioligand binding, human δ-opioid (DOP) (Human δ-opioid (DOP)): − (“−” indicates less than 50% inhibition at 10 μM)
- A7: inhibition of radioligand binding, human μ-opioid (MOP) (Human μ-opioid (MOP)): − (“−” indicates less than 50% inhibition at 10 μM)
- A5: inhibition of radioligand binding, human melanocortin (MC5) (Human melanocortin (MC5)): + (“+” indicates greater than 50% inhibition at 10 μM)

Structure (SMILES): N=C(N)NCCC(=O)NC1C(OCc2ccc(Cl)cc2)OC(COCc2ccccc2)C(O)C1OCc1ccc2ccccc2c1 (stereo not drawn) [compound 430]
- A4: inhibition of radioligand binding (Human Melanocortin (MC4); human MC4 membranes): + (“+” indicates greater than 50% inhibition at 10 μM)
- A6: inhibition of radioligand binding ([1]; [125I]-S36057, human MCH1 membranes): + (“+” indicates greater than 50% inhibition at 10 μM)
- A3: inhibition of radioligand binding (Human Melanocortin (MC3); human MC3 membranes): + (“+” indicates greater than 50% inhibition at 10 μM)
- A9: inhibition of radioligand binding ([2]; human NPY-Y1 membranes): − (“−” indicates less than 50% inhibition at 10 μM)
- A10: inhibition of radioligand binding (Human opioid (ORL1); human ORL1 membranes): + (“+” indicates greater than 50% inhibition at 10 μM)
- A11: inhibition of radioligand binding (Mouse urotensin (mUR2); mouse mUR2 membranes): − (“−” indicates less than 50% inhibition at 10 μM)
- A8: inhibition of radioligand binding (Human neurokinin (NK1); human NK1 membranes): + (“+” indicates greater than 50% inhibition at 10 μM)
- A2: inhibition of radioligand binding (Human κ-Opioid (KOP); human KOP membranes): − (“−” indicates less than 50% inhibition at 10 μM)
- A1: inhibition of radioligand binding (Human δ-opioid (DOP); human DOP membranes): − (“−” indicates less than 50% inhibition at 10 μM)
- A7: inhibition of radioligand binding (Human μ-opioid (MOP); human MOP membranes): − (“−” indicates less than 50% inhibition at 10 μM)
- A5: inhibition of radioligand binding (Human melanocortin (MC5); human MC5 membranes): + (“+” indicates greater than 50% inhibition at 10 μM)
